The target in the assay is Peroxisome proliferator-activated receptor alpha (Mesocricetus auratus). The experiment in a line: Agonist activity against hamster Peroxisome proliferator activated receptor alpha.

A word on the EC50: it is the concentration at which the effect is half-maximal.

Compound `CCCc1cc2c(C(F)(F)F)noc2c(CCC)c1OC(C)(C)C(=O)O` [2-(5,7-Dipropyl-3-trifluoromethyl-benzo[d]isoxazol-6-yloxy)-2-methyl-propionic acid] came in with an EC50 of 460 nM.
